Laboratory results taken from patent US20100137449A1, “SUBSTITUTED 1,3-CYCLOPENTADIONE MULTI-TARGET PROTEIN KINASE MODULATORS OF CANCER, ANGIOGENESIS AND THE INFLAMMATORY PATHWAYS ASSOCIATED THEREWITH” (METAPROTEOMICS, LLC, priority 2007, published 2010).

Tests used:
Assay in all cases: KinaseProfiler Assay
[1] = target: CaMKI(h) (Homo sapiens, UniProt Q14012)
[2] = target: CaMKIIδ(h) (Homo sapiens, UniProt Q13557)
[3] = target: T1, EphB4(h) (Homo sapiens, UniProt P54760)
T1 sequence (P54760 16-987): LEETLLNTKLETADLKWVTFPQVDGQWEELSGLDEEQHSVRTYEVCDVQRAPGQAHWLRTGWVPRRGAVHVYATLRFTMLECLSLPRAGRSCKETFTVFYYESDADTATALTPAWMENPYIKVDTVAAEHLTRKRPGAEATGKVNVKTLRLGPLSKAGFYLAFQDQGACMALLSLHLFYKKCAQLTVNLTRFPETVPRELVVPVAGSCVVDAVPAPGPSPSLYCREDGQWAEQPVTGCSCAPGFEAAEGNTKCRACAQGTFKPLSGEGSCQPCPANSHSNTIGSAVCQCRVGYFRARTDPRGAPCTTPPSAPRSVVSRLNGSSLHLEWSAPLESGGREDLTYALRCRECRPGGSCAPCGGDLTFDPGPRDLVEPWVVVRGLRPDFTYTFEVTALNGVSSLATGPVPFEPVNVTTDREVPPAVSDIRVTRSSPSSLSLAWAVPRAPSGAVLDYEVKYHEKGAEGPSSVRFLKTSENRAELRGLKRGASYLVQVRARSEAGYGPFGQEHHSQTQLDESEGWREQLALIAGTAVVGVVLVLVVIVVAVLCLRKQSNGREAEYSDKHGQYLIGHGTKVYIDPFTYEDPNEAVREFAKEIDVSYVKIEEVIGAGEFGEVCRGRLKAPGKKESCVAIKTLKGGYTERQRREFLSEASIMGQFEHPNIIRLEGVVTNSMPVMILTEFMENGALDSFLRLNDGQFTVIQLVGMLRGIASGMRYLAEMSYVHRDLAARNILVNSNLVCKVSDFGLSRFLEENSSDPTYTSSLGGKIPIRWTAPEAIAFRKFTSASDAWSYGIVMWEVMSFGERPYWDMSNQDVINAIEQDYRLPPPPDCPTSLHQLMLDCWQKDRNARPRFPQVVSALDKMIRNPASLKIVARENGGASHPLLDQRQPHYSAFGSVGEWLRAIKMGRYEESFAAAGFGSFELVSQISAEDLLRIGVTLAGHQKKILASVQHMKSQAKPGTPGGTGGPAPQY

[4] = target: FGFR3(h) (Homo sapiens, UniProt P22607)
[5] = target: T2, NEK11(h) (Homo sapiens, UniProt Q8NG66)
T2 sequence (Q8NG66 1-645): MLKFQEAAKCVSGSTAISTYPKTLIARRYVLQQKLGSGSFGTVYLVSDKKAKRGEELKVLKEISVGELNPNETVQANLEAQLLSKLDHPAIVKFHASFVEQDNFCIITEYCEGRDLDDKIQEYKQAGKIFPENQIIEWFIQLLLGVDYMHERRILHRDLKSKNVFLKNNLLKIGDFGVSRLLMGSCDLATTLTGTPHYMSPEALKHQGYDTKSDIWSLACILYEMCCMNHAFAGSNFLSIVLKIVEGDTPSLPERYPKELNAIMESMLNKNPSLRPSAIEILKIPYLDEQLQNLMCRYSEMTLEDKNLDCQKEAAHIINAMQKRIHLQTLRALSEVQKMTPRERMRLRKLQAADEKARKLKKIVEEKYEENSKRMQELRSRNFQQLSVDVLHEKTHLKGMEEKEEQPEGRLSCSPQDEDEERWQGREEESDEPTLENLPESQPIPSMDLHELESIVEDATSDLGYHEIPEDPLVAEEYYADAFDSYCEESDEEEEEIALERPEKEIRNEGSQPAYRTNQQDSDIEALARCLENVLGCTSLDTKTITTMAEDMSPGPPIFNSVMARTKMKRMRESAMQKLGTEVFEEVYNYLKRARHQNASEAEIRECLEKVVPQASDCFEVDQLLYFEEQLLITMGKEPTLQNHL

[6] = target: T3, NLK(h) (Homo sapiens, UniProt Q9UBE8)
T3 sequence (Q9UBE8 1-527): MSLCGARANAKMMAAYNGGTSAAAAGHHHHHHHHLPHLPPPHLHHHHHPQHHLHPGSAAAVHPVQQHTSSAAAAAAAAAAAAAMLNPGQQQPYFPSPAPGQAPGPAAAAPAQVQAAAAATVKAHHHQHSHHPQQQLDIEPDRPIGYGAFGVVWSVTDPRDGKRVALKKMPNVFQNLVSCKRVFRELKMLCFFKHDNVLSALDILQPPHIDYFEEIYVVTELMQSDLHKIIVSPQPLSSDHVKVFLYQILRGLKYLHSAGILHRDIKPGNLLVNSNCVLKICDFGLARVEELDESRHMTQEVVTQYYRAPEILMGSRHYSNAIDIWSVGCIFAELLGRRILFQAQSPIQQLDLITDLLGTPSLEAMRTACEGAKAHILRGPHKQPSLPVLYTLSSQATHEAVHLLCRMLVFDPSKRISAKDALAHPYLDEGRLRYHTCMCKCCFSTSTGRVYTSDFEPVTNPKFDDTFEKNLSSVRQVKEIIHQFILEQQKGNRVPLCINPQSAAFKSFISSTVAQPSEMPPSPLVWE

[7] = target: PASK(h) (Homo sapiens, UniProt Q96RG2)
Sequence of PASK(h) (Q96RG2 whole entry): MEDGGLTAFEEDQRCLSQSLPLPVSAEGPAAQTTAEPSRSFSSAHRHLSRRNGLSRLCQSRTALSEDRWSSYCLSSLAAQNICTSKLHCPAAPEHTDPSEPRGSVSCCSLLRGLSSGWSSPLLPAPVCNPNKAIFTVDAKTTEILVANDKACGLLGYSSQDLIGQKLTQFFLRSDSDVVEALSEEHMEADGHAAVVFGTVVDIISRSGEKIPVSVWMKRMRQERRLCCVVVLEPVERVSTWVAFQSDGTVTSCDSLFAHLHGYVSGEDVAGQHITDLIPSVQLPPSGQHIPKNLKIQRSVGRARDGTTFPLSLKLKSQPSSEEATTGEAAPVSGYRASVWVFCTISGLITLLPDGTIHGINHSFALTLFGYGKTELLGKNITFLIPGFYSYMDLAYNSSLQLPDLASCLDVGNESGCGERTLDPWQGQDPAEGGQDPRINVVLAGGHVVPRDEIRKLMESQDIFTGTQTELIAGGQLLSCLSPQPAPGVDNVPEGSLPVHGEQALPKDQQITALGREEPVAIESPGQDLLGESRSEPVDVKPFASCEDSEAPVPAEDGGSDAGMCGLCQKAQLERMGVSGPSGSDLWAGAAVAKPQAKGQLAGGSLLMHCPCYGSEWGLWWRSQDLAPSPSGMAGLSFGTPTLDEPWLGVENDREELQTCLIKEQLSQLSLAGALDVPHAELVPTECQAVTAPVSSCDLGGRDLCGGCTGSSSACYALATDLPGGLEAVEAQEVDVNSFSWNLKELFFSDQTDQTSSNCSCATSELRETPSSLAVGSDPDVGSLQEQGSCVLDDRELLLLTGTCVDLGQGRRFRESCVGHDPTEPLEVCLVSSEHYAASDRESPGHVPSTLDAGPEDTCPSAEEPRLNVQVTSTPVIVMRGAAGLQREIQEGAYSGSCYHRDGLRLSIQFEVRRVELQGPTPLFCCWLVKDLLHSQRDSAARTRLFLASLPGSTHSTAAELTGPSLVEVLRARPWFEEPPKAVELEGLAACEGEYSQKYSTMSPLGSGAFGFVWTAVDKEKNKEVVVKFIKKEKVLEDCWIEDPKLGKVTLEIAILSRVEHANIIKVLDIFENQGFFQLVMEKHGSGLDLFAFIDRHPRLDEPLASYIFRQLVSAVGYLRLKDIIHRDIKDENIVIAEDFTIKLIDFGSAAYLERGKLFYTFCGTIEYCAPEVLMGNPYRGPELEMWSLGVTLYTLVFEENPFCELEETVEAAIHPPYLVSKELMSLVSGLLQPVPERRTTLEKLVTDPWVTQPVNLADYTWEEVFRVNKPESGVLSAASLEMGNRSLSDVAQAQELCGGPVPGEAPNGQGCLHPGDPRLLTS

Sequence of CaMKI(h) (Q14012 whole entry): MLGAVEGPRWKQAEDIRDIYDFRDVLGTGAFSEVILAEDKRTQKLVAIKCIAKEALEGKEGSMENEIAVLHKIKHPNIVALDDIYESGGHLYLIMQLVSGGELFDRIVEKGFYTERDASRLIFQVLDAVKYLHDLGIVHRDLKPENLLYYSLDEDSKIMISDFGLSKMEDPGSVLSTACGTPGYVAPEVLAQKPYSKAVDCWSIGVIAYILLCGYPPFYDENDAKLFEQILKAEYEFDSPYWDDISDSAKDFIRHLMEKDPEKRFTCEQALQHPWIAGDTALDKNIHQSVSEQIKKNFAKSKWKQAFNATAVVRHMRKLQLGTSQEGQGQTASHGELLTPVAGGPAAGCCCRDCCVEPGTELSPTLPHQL
Sequence of CaMKIIδ(h) (Q13557 whole entry): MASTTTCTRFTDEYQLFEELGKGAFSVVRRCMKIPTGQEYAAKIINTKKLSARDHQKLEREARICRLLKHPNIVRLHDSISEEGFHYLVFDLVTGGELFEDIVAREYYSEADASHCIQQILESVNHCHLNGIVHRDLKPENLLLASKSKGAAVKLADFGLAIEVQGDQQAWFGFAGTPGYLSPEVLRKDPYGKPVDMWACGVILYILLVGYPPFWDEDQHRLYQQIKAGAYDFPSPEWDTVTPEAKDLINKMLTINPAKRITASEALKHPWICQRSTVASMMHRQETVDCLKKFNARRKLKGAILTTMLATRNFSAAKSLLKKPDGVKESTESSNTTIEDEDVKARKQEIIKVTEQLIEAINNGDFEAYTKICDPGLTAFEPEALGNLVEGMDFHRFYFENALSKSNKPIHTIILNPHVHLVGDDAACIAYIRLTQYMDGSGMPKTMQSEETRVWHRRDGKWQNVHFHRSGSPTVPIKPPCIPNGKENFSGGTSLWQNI
Sequence of FGFR3(h) (P22607 23-806): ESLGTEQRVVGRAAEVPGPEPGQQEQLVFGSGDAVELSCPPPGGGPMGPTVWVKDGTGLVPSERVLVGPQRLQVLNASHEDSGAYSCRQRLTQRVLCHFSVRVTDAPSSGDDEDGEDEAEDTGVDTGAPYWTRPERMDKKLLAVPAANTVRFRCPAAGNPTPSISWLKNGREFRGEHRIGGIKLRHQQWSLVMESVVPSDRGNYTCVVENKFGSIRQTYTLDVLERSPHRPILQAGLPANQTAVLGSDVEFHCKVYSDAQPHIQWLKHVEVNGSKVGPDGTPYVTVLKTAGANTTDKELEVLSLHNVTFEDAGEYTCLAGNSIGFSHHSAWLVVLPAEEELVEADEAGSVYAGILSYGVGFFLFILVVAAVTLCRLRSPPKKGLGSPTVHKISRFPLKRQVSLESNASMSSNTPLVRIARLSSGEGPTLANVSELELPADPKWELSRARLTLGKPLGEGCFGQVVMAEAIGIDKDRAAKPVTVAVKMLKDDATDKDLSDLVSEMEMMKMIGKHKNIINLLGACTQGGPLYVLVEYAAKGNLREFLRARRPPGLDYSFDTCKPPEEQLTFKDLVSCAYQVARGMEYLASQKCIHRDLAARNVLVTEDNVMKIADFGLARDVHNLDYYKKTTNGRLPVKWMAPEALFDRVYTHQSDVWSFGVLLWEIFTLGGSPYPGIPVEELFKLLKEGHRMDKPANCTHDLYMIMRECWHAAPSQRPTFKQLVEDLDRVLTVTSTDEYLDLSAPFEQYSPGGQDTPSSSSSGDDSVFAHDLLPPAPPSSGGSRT

Q: With `CC(C)CCC(=O)[C@]1(O)C(O)=C(C(=O)C(C)C)C(=O)[C@H]1CCC(C)C` [TH2, tetrahydroiso-cohumulone] as the compound, how does the kinase inhibition ([1]; 1 μg/ml) read?
A: 96% of control

Q: What about the kinase inhibition ([1]; 5 μg/ml) of the same compound?
A: 93% of control

Q: What about the kinase inhibition ([1]; 25 μg/ml) of the same compound?
A: 73% of control

Q: What about the kinase inhibition ([1]; 50 μg/ml) of the same compound?
A: 48% of control

Q: What about the kinase inhibition ([1]; 100 μg/ml) of the same compound?
A: 48% of control

Q: What about the kinase inhibition ([2]; 1 μg/ml) of the same compound?
A: 99% of control

Q: And the kinase inhibition ([2]; 5 μg/ml)?
A: 99% of control

Q: And the kinase inhibition ([2]; 25 μg/ml)?
A: 100% of control

Q: What about the kinase inhibition ([2]; 50 μg/ml) of the same compound?
A: 91% of control

Q: And the kinase inhibition ([2]; 100 μg/ml)?
A: 87% of control

Q: And the kinase inhibition ([3]; 1 μg/ml)?
A: 106% of control

Q: And the kinase inhibition ([3]; 5 μg/ml)?
A: 112% of control

Q: And the kinase inhibition ([3]; 25 μg/ml)?
A: 116% of control

Q: And the kinase inhibition ([3]; 50 μg/ml)?
A: 109% of control

Q: And the kinase inhibition ([3]; 100 μg/ml)?
A: 98% of control

Q: And the kinase inhibition ([4]; 1 μg/ml)?
A: 94% of control

Q: What about the kinase inhibition ([4]; 5 μg/ml) of the same compound?
A: 92% of control

Q: And the kinase inhibition ([4]; 25 μg/ml)?
A: 67% of control

Q: And the kinase inhibition ([4]; 50 μg/ml)?
A: 64% of control

Q: What about the kinase inhibition ([4]; 100 μg/ml) of the same compound?
A: 51% of control

Q: And the kinase inhibition ([5]; 1 μg/ml)?
A: 97% of control

Q: And the kinase inhibition ([5]; 5 μg/ml)?
A: 106% of control

Q: What about the kinase inhibition ([5]; 25 μg/ml) of the same compound?
A: 96% of control

Q: What about the kinase inhibition ([5]; 50 μg/ml) of the same compound?
A: 75% of control

Q: And the kinase inhibition ([5]; 100 μg/ml)?
A: 51% of control

Q: What about the kinase inhibition ([6]; 1 μg/ml) of the same compound?
A: 105% of control

Q: What about the kinase inhibition ([6]; 5 μg/ml) of the same compound?
A: 104% of control

Q: And the kinase inhibition ([6]; 25 μg/ml)?
A: 98% of control

Q: What about the kinase inhibition ([6]; 50 μg/ml) of the same compound?
A: 96% of control

Q: And the kinase inhibition ([6]; 100 μg/ml)?
A: 85% of control

Q: And the kinase inhibition ([7]; 1 μg/ml)?
A: 71% of control

Q: And the kinase inhibition ([7]; 5 μg/ml)?
A: 76% of control

Q: What about the kinase inhibition ([7]; 25 μg/ml) of the same compound?
A: 78% of control

Q: What about the kinase inhibition ([7]; 50 μg/ml) of the same compound?
A: 80% of control

Q: And the kinase inhibition ([7]; 100 μg/ml)?
A: 71% of control
